Results published in patent US20110190503A1, “Thiazolopyridin-2-yloxy-phenyl and thiazolopyrazin-2-yloxy-phenyl amines as modulators of leukotriene A4 hydrolase” (Janssen Pharmaceutical NV, priority 2008, published 2011).
Counter-ions that a name gives are not always drawn. Like-named read-outs stand apart in the source and are kept apart here.

Legend:
[1] = target: T1, recombinant human LTA4 hydrolase (rhLTA4H) (Homo sapiens, UniProt P09960); test: Recombinant human LTA4 hydrolase assay for LTA4 hydrolase inhibitor activity; type: biochemical; conditions: rhLTA4H, LTA4 substrate, LTB4 by immunoassay; single determination or average; read-out: IC50
T1 construct: made in house; host or cells: Spodoptera frugiperda (Sf-9) cells, recombinant baculovirus (pFastBac1)
T1 sequence (P09960 1-611): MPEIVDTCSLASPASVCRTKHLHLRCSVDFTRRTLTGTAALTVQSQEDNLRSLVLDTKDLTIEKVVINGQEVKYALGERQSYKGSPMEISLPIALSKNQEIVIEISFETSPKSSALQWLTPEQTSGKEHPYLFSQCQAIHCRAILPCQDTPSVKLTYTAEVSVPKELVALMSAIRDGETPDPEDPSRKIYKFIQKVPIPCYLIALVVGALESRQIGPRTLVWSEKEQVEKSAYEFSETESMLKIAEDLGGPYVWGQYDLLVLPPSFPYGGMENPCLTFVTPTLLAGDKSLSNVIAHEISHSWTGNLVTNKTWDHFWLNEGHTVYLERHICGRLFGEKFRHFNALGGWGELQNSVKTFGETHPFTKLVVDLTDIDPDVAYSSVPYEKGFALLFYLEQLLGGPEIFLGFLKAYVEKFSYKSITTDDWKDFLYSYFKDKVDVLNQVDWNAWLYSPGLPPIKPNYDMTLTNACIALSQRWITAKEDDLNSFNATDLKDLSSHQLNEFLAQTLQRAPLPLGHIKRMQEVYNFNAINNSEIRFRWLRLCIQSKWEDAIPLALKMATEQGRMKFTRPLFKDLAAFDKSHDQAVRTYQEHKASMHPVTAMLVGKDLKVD
Outline: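 LTB4 formed from LTA4 substrate (free acid from the methyl ester) was quantified by enzyme immunoassay after a 30 min rt reaction. Enzyme was 10 ng Sf-9-expressed human LTA4 hydrolase, pre-incubated 10 min with compound.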

[2] = tested on: LTB4 production by calcium ionophore-stimulated murine blood; test: LTB4 production by calcium ionophore-stimulated murine blood for LTA4H inhibitor activity; type: cell-based, CD-1 mice; conditions: murine blood diluted 1 in 15, calcium ionophore A23187, LTB4 by immunoassay, read-out: IC50
Procedure: Assay 2: LTB4 Production by Calcium Ionophore-Stimulated Murine Blood for LTA4H Inhibitor Activity
CD-1 mice were sacrificed, and blood was collected in heparin-containing syringes by cardiac puncture. […] After the microtiter plate contents were incubated for 15 min at 37° C. in a humidified incubator, calcium ionophore A23187 (Sigma Chemical Co., St. Louis, Mo.) was added to each sample well (final concentration=7 μg/mL). The incubation was continued under the same conditions for an additional 30 min to allow LTB4 formation. The reaction was terminated by centrifugation (833×g, 10 min at 4° C.), and supernatants were analyzed for LTB4 by a commercially available enzyme-linked immunoassay (Cayman Chemical Co.) according to the manufacturer's instructions. Positive controls, under essentially identical conditions but without addition of an inhibitor compound, and negative unstimulated controls, containing all assay components except calcium ionophore, were routinely run in each experiment. […] The values presented here are the result of a single determination or an average of two or more determinations, as indicated in parentheses following each value. For compounds tested three or more times, the average value is followed by the standard deviation

Structure (SMILES)	IC50 [1] [µM]	IC50 ([2]; Mus musculus) [µM]	IC50 [2] [µM]
c1ccc(OC2CCN(CCOc3ccc(Oc4nc5ncccc5s4)cc3)CC2)nc1 [Example 12, 2-(4-{2-[4-(Pyridin-2-yloxy)piperidin-1-yl]ethoxy}phenoxy)[1,3]thiazolo[4,5-b]pyridine]	0.011	0.16	
c1ccc(CC2CCN(CCOc3ccc(Oc4nc5ncccc5s4)cc3)CC2)cc1 [Example 28, 2-{4-[2-(4-Benzylpiperidin-1-yl)ethoxy]phenoxy}[1,3]thiazolo[4,5-b]pyridine]	0.052	0.38	
c1cnc2nc(Oc3ccc(OCCN4CCCC4)cc3)sc2c1 [Example 9, 2-[4-(2-Pyrrolidin-1-ylethoxy)phenoxy][1,3]thiazolo[4,5-b]pyridine]	0.006	0.017	
CC(=O)N1[C@@H]2CC[C@H]1C[C@@H](NCc1ccc(Oc3nc4ncccc4s3)cc1)C2 [Example 169, meso-(3-endo)-8-Acetyl-N-{[4-([1,3]thiazolo[4,5-b]pyridin-2-yloxy)phenyl]methyl}-8-azabicyclo[3.2.1]octan-3-amine]	0.018	0.054	
c1cnc(OC2CCN(CCOc3ccc(Oc4nc5ncccc5s4)cc3)CC2)nc1 [Example 1, 2-(4-{2-[4-(Pyrimidin-2-yloxy)piperidin-1-yl]ethoxy}phenoxy)[1,3]thiazolo[4,5-b]pyridine]	0.001	0.15	
CC(=O)N1C[C@H]2CC[C@@H](C1)N2CCOc1ccc(Oc2nc3ncccc3s2)cc1 [Example 141, meso-2-{4-[2-(3-Acetyl-3,8-diazabicyclo[3.2.1]oct-8-yl)ethoxy]phenoxy}[1,3]thiazolo[4,5-b]pyridine]	0.002	0.014	
CC(=O)N1C2CCC1CN(Cc1ccc(Oc3nc4ncccc4s3)cc1)C2 [Example 185, meso-2-[(4-{[8-Acetyl-3,8-diazabicyclo[3.2.1]oct-3-yl]methyl}phenyl)oxy][1,3]thiazolo[4,5-b]pyridine]	0.007		0.85
CN(CCOc1ccc(Oc2nc3ncccc3s2)cc1)Cc1ccccc1 [Example 36, N-Benzyl-N-methyl-2-[4-([1,3]thiazolo[4,5-b]pyridin-2-yloxy)phenoxy]ethanamine]	0.003	0.051	
OC1(c2ccccc2)CCN(Cc2ccc(Oc3nc4ncccc4s3)cc2)CC1 [Example 105, 4-Phenyl-1-[4-([1,3]thiazolo[4,5-b]pyridin-2-yloxy)benzyl]piperidin-4-ol]	0.00053	0.015	
NC(=O)N[C@@H]1C[C@H]2CC[C@@H](C1)N2Cc1ccc(Oc2nc3ncccc3s2)cc1 [Example 110, meso-1-{(3-exo)-8-[4-([1,3]Thiazolo[4,5-b]pyridin-2-yloxy)benzyl]-8-azabicyclo[3.2.1]oct-3-yl}urea]	0.001	1.44	
C[C@H](c1ccccc1)N(C)CCc1ccc(Oc2nc3ncccc3s2)cc1 [Example 58, (1R)—N-Methyl-1-phenyl-N-{2-[4-([1,3]thiazolo[4,5-b]pyridin-2-yloxy)phenyl]ethyl}ethanamine]	0.008	0.045	
CCCCN(CC)CCc1ccc(Oc2nc3ncc(C)cc3s2)cc1 [Example 178, N-Ethyl-N-(2-{4-[(6-methyl[1,3]thiazolo[4,5-b]pyridin-2-yl)oxy]phenyl}ethyl)butan-1-amine]	0.011	0.26	
CC(=O)N1CC2CC(CN(Cc3ccc(Oc4nc5ncccc5s4)cc3)C2)C1 [Example 294, meso-2-(4-{[7-Acetyl-3,7-diazabicyclo[3.3.1]non-3-yl]methyl}phenoxy)[1,3]thiazolo[4,5-b]pyridine]	0.023	0.079	
c1cncc(OC2CCN(Cc3ccc(Oc4nc5ncccc5s4)cc3)CC2)c1 [Example 98, 2-(4-{[4-(Pyridin-3-yloxy)piperidin-1-yl]methyl}phenoxy)[1,3]thiazolo[4,5-b]pyridine]	0.006	0.009	
NC(=O)N[C@H]1C[C@H]2CC[C@@H](C1)N2CCc1ccc(Oc2nc3cccnc3s2)cc1 [Example 72, meso-1-[(3-endo)-8-{2-[4-([1,3]Thiazolo[5,4-b]pyridin-2-yloxy)phenyl]ethyl}-8-azabicyclo[3.2.1]oct-3-yl]urea]	0.047	1.04	
OC1(c2ccc(Cl)cc2)CCN(Cc2ccc(Oc3nc4ncccc4s3)cc2)CC1 [Example 104, 4-(4-Chlorophenyl)-1-[4-([1,3]thiazolo[4,5-b]pyridin-2-yloxy)benzyl]piperidin-4-ol]	0.0019	0.028	
Clc1cnc2nc(Oc3ccc(CN4CCCCC4)cc3)sc2c1 [Example 279, 6-Chloro-2-(4-piperidin-1-ylmethyl-phenoxy)[1,3]thiazolo[4,5-b]pyridine]		0.55	
OCCCN(CCOc1ccc(Oc2nc3ccncc3s2)cc1)CC1CC1 [Example 156, 3-[(Cyclopropylmethyl){2-[4-([1,3]thiazolo[5,4-c]pyridin-2-yloxy)phenoxy]ethyl}amino]propan-1-ol]	0.494		
FC(F)(F)C1CCN(CCOc2ccc(Oc3nc4cnccc4s3)cc2)CC1 [Example 164, 2-{[4-({2-[4-(Trifluoromethyl)piperidin-1-yl]ethyl}oxy)phenyl]oxy}[1,3]thiazolo[4,5-c]pyridine]	0.045		
OC1(c2ccc(Cl)cc2)CCN(CCOc2ccc(Oc3nc4cccnc4s3)cc2)CC1 [Example 39, 4-(4-Chlorophenyl)-1-{2-[4-([1,3]thiazolo[5,4-b]pyridin-2-yloxy)phenoxy]ethyl}piperidin-4-ol]	0.26		
CC(=O)N1CC2CN(CCc3ccc(Oc4nc5cccnc5s4)cc3)CC2C1 (stereo not shown) [Example 69, 2-{4-[2-(5-Acetylhexahydropyrrolo[3,4-c]pyrrol-2(1H)-yl)ethyl]phenoxy}[1,3]thiazolo[5,4-b]pyridine]	0.12		
O=C(C1CC1)N1CCN(CCc2ccc(Oc3nc4ncc(Cl)cc4s3)cc2)CC1 [Example 197, 6-Chloro-2-[(4-{2-[4-(cyclopropylcarbonyl)piperazin-1-yl]ethyl}phenyl)oxy][1,3]thiazolo[4,5-b]pyridine]	0.36		
Cc1ccnc2nc(Oc3ccc(OCCN4[C@@H]5CC[C@H]4C[C@@H](NC(=O)CN)C5)cc3)sc12 [Example 166, meso-N-{(3-endo)-8-[2-({4-[(7-Methyl[1,3]thiazolo[4,5-b]pyridin-2-yl)oxy]phenyl}oxy)ethyl]-8-azabicyclo[3.2.1]oct-3-yl}glycinamide hydrochloride]	0.114		
CC(=O)N1C[C@@H]2C[C@H]1CN2Cc1ccc(Oc2nc3ccc(C)nc3s2)cc1 [Example 118, 2-(4-{[(1S,4S)-5-Acetyl-2,5-diazabicyclo[2.2.1]hept-2-yl]methyl}phenoxy)-5-methyl[1,3]thiazolo[5,4-b]pyridine]	3.74		
c1cc2nc(Oc3ccc(CN4CCCCC4)cc3)sc2cn1 [Example 114, 2-[4-(Piperidin-1-ylmethyl)phenoxy][1,3]thiazolo[5,4-c]pyridine]	0.68		
Clc1cnc2nc(Oc3ccc(CCN4CCC(N5CCCCC5)CC4)cc3)sc2c1 [Example 223, 1′-(2-{4-[(6-Chloro[1,3]thiazolo[4,5-b]pyridin-2-yl)oxy]phenyl}ethyl)-1,4′-bipiperidine]	0.563		
CCC(=O)NC1CCN(Cc2ccc(Oc3nc4cccnc4s3)cc2)CC1 [Example 219, N-{1-[4-([1,3]Thiazolo[5,4-b]pyridin-2-yloxy)benzyl]piperidin-4-yl}propanamide]	0.276		
